Here are results for one molecule from US20070270403A1 (priority 2003, published 2007).

Where two headings read alike, the source gives them in different places.

The test system of data set [1] is 5-HT release in NAcc. Description: In vivo microvoltammetry, 5-HT release in NAcc (clozapine studies). Also noted: species or system Sprague-Dawley Rattus Norvegicus. How it is done: There is an increasing awareness that a psychosis, similar to that of schizophrenic psychosis, can be derived from cocaine addiction. […] Release mechanisms for monoamines, were determined by using a depolarization blocker, gamma-butyrolactone (γBL). […] Acute and Subacute studies were performed for each treatment group.
The stereotaxic equipment was purchased from David Kopf Instruments, Tujunga, Calif. A Ag/AgCl reference electrode was placed in contact with dura, 7 mm anteriorally and contralaterally to the indicator microelectrode. A stainless steel auxiliary microelectrode was placed in contact with dura. BRODERICK PROBE® microelectrodes were manufactured on site.
In vivo microvoltammetric studies on conscious Sprague-Dawley laboratory rats were begun nine to fifteen days after the aseptic surgical operations were performed. On each experimental day, the animal was placed in a Plexiglas-copper faradaic chamber. The three-microelectrode assembly, enclosed within the animal's prosthetic acrylic cap, was connected to a CV37 detector by means of a mercury commutator (Br. Res. Instr., Princeton, N.J.), a flexible cable, and a mating connector (BJM Electronics, Staten Island, N.Y.). The CV37 detector was electrically connected to a Minigard surge suppresser (Jefferson Electric, Magnetek, N.Y.) which was then connected to an electrical ground in isolation. […] Each animal was used as its own control. Changes in synaptic concentrations of DA and 5-HT are presented as percent change (% of control) in order to minimize normal between-animal variations. […] In vivo microvoltammetric scans were recorded in sec and repeated every five min for a period of 2 hrs before each treatment and a period of two hrs after each treatment.
Potentials were applied with a CV37 detector (BAS, West Lafayette, Ind.). Potentials were applied from −0.2V to +0.4V with respect to a Ag/AgCl (1M NaCl) electrode, at a scan rate of 10 mV/sec at time constants of 5 and 1 tau. One scan was completed in 60 sec. Non-faradaic charging current was eliminated in the first 25 sec.
Calibration curves were determined experimentally, in vitro, in a freshly prepared deoxygenated physiological saline-phosphate buffer solution (0.01 M, pH=7.4). We use ultra pure Nitrogen (N2) (T. W. Smith Corp., Bklyn, N.Y.) to deoxygenate the buffer solution. […] Calibration studies were also performed in freshly prepared deoxygenated buffer solutions containing phosphotidylethanolamine (PEA), combined with bovine serum albumin (BSA) (Sigma Aldrich, St. Louis, Mo.), a solution which closely mimics brain constituents. […] Detection limits for basal synaptic concentrations of DA and 5-HT in NAcc were 12 nM and 2 nM respectively.

Data set [2] has as its system Sprague-Dawley laboratory rats. Description: Stereotypy (fine movements of sniffing and grooming) by infrared photobeams (risperidone studies). Format: in vivo, Sprague-Dawley Rattus Norvegicus. The protocol:
Behaviors were monitored with infrared photobeams which surrounded the faradaic chamber. Open-field behaviors of locomotion (ambulations) and stereotypy (fine movements of sniffing and grooming) were recorded in sec and repeated every five min for a period of 2 hrs before each treatment and a period of 2 hrs after each treatment. Open-field behaviors were monitored simultaneously with in vivo microvoltammetric recordings of monoamines.
The first hr pre-drug, allowed exploratory behavior. Exploratory behavior is defined as open-field behavior of ambulations (forward locomotion) and stereotypy (fine movements of sniffing and grooming), wherein animals respond to the stimuli of a novel environment with a high frequency of behavioral counts. The second hr pre-drug allowed the animal to become habituated before treatment. […] In the acute studies, each drug was administered […]. For the subacute studies, twenty four hrs later, the animals were again placed in the faradaic behavioral chamber and no further drug was administered. Each animal was monitored for possible recovery, withdrawal or after-effects. of each treatment WHILE open-field behaviors of locomotions and stereotypy were monitored with computerized infrared photocell beams which surround the faradaic chamber.
The faradaic chamber was made of plexiglas and covered with copper wire to refract possible electrical artifacts (dimensions: 24 inch (width) by 18 inch (depth) by 23.5 inch (height)). A 16 by 16 array of infrared photobeams, held in place by an aluminum frame, was situated ¾ inch above the Plexiglas floor of the chamber to detect locomotor and stereotypic movements. Photobeams were sampled by a Pentium computer to define the x-y position of the animal within a 1.5 inch resolution every 100 msec. When an x-y position was calculated, it was used to define a particular behavioral parameter. This system is a modified version of an Activity Pattern Monitor (APM) (San Diego Instruments, San Diego, Calif.). Behavioral data is presented in terms of Frequency of Events.
Neurochemical and behavioral data, derived from the last thirty minutes of the habituation period, provided the baseline data. […] Where appropriate, data points in the time course were subjected to 95% Confidence Limits (C.L.).

Data set [3] can be described thus: Pharmacokinetics of cocaine and its metabolites (literature). Particulars: rat, in vivo, ip; i.p. cocaine, extrapolated.
The conditions of data set [4]: cited from earlier work.

As usually defined, the half-life is the time in which the quantity being followed falls by half. Regarding `COC(=O)[C@H]1[C@@H](OC(=O)c2ccccc2)C[C@@H]2CC[C@H]1N2C` [Cocaine, cocaine], the “Maximum decrease in 5-HT below baseline, Subacute” value in data set [1] (24 hr after cocaine 10 mg/kg i.p.) was 40%. Further, the “Decrease in 5-HT release on Day 2 compared to drug effect on Day1” value in data set [1] (Subacute, cocaine 10 mg/kg i.p. on Day 1, second half hour of the study) is listed as “approximately 150%”. In data set [2] (24 hr after cocaine 10 mg/kg i.p. or risperidone 2 mg/kg s.c. + cocaine), the “Stereotypy frequency, Day 2 (Subacute)” value is recorded as 40 counts. Moreover, in data set [2] (Subacute, cocaine 10 mg/kg i.p.), the “Decrease in stereotypy frequency on Day 2 compared with drug treatment, Day1” value is on record as “about 20 counts”. The “Stereotypy frequency with drug treatment, Day1” value in data set [2] (cocaine 10 mg/kg i.p. or risperidone 2 mg/kg s.c. + cocaine) came to 60 counts. Besides, the figures for the half-life in data set [3], in data set [4] (i.v. cocaine) and in data set [4] (s.c. cocaine) were around 2 h, 0.5 h and 4 h, respectively.
